Read-outs that look alike come from different tables or passages of the source.
Tests used:
human plasma proteins = assay: Percent of free camptothecin analogs in human plasma (dialysis, HPLC); settings: 100 nM compound concentrations
Description: Stocks of various camptothecin analogs were prepared in DMSO. Phosphate buffer was prepared from analytical grade reagents and regenerated cellulose membranes with 12-14 kD molecular weight cut-off (MWCO) were purchased from Spectrum Laboratories. Samples were incubated 48 hours or longer at room temperature until equilibrium was reached. Experiments to determine the percent of free camptothecin/Karenitecin® analogs were performed in triplicate. Optimum HPLC detection conditions for each camptothecin/Karenitecin® analog were developed using traditional HPLC methods.

A2780/DX5 cells = assay: Sulforhodamine B (SRB) cytotoxicity assay in A2780/DX5 cells; type: cell-based; settings: for IC50 Ratio: A2780/DX5 versus A2780/WT; for IC50: Homo sapiens, A2780, read-out: A2780/DX5
Description: (§1) Each of the testing conditions used in this study in both A2780/WT (wild-type) and A2780/DX5 cells were repeated in five to fifteen experiments that were performed on separate days. Each experiment consisted of one microtiter plate with at least eight individual assays of a given drug treatment condition on the plate. The sulforhodamine B (SRB) assay was used to assess cytotoxicity and absorbance at 570 nm (A570) in order to calculate the percentage of cell control (or percent cell survival) for the various treatment conditions in the plate wells.
(§2) Roswell Park Memorial Institute (RPMI 1640) medium, fetal bovine serum (FBS), and L-glutamine were purchased from Gibco BRL. Drugs were dissolved in sterile dimethylsulfoxide (DMSO), from American Type Culture Collection (ATCC) for stock solutions (2.5 to 5.0 mM). Subsequent dilutions were made using cell culture medium (prior to adding the drug to cells). SRB was purchased from Sigma and dissolved in 1.0 percent acetic acid. Trichloroacetic acid was purchased from VWR International.
(§3) Cells were manipulated in a Class IIA/B3 Biological Safety Cabinet (Forma Scientific) and maintained at 37° C. in a humidified atmosphere containing 5% CO2 in a water-jacketed cell culture incubator (Forma Scientific). Cells were counted using a Coulter-Z1 counter (Beckman-Coulter). Following drug treatment, plates were washed using a Biomek 2000 station (Beckman) and, following exposure to SRB dye, plates were washed using an automated plate washer (Model EL404, Bio-Tek Instruments). Percentage of control was correlated to A570 values and determined using a Model EL800 plate reader (Bio-Tek Instruments).
(§4) Population doubling times for the two cell lines used in this study encompassed a total of five cell doublings corresponding to approximately 5 days for A2780/WT and A2780/DX5 cells. A2780/WT and A2780/DX5 cells were cultured in RPMI 1640 medium supplemented with 10% fetal bovine serum and 1 mM of L-glutamine. Both cell lines were maintained as monolayered cultures in T-25 or T-75 flasks and then seeded to microtiter plate wells for experiments described herein. Prior to SRB assays, cell viability was monitored by evaluation of microtiter plate wells. Dead cells detach and float while living cells remain attached to the bottom of the cell well.
The sulforhodamine B (SRB) cytotoxicity assay (see, Skehan P, et al., New colorimetric cytotoxicity assay for anticancer-drug screening. J. Natl. Cancer Inst. 82:1107-1112 (1990)) was used to determine the cytotoxic effects of BNP1350, SN-38, topotecan, 9-NH2-CPT, and 9-NO2-CPT on cell growth in vitro. Briefly, after the medium was aspirated from individual plate wells, trichloroacetic acid (100 μL of 10.0% solution) was added to each well, and the plates were incubated at 4° C. for at least 1 hour. The plates were washed five-times with water using an automated microplate washer (Model EL 404, Bio-Tek Instruments), SRB solution (100 μL of 0.4 grams SRB dissolved in 100 mL 1.0 percent acetic acid) was added, and plates remained at room temperature for 15 minutes. The plates were then washed five-times using acetic acid (1.0%), air dried, and bound dye was solubilized in Tris base (150 μL, 10 mM). Plates were agitated (gently) for 5 minutes and the absorbance values of the SRB dye-protein adduct at a 570 nm wavelength (A570) were determined using an automated microtiter plate reader equipped with an A570 filter (Model EL800, BioTek Instruments).

[1] = test system: A2780/WT (wild-type) cells; assay: Sulforhodamine B (SRB) cytotoxicity assay in A2780/WT cells; type: cell-based; settings: Homo sapiens
Description: as §1, §2, §3
as §4, with “Dead cells detach and float while living cells remain attached to the bottom of the cell well.” left out
The sulforhodamine B (SRB) cytotoxicity assay (see, Skehan P, et al., New colorimetric cytotoxicity assay for anticancer-drug screening. J. Natl. Cancer Inst. 82:1107-1112 (1990)) was used to determine the cytotoxic effects of BNP1350, SN-38, topotecan, 9-NH2-CPT, and 9-NO2-CPT on cell growth in vitro. […] Plates were agitated (gently) for 5 minutes and the absorbance values of the SRB dye-protein adduct at a 570 nm wavelength (A570) were determined using an automated microtiter plate reader equipped with an A570 filter (Model EL800, BioTek Instruments).

[2] = doses of 20 to 30 mg/m^2; cited from earlier work
[3] = test system: advanced gastrointestinal cancer; settings: cited from earlier work
[4] = cited from earlier work
[5] = test system: advanced malignant melanoma; settings: fifteen patients, 90-360 mg/m^2 every 2 weeks; cited from earlier work
[6] = carboxylate form versus lactone form; cited from earlier work
[7] = test system: panel of over 20 human cancer cell lines
[8] = clinical studies in Japan; cited from earlier work
[9] = 5-day course (27 patients total), 4 wks
[10] = 5-day course (27 patients total), 8 wks
[11] = 5-day course (27 patients total), 12 wks
[12] = single-dose method (34 patients total), 3 wks
[13] = single-dose method (34 patients total), 6 wks
[14] = single-dose method (34 patients total), 9 wks
[15] = single-dose method (34 patients total), 12 wks
[16] = 5-day course, 15 mg/m^2 × 5, 9 patients treated
[17] = 5-day course, 17 mg/m^2 × 5, 5 patients treated
[18] = 5-day course, 20 mg/m^2 × 5, 10 patients treated
[19] = single-dose method, 110 mg/m^2, 2 patients treated
[20] = single-dose method, 120 mg/m^2, 7 patients treated
[21] = single-dose method, 180 mg/m^2, 9 patients treated

C=C[Si](C)(C)CCc1c2c(nc3ccccc13)-c1cc3c(c(=O)n1C2)COC(=O)[C@]3(O)CC [Compound 1, 11-(4S)-[2-(dimethylvinylsilanyl)-ethyl]-4-ethyl-4-hydroxy-1,12-dihydro-4H-2-oxa-6,12a-diaza-dibenzo[b,h]fluorene-3,13-dione]
Percent of Free Camptothecin Analogs in Human Plasma (human plasma proteins): 2% | IC50 Ratio (A2780/DX5 cells): 1.68 | IC50 (A2780/DX5 cells): 21.8 nM | IC50 ([1]; SRB assay, A2780/WT cells, read-out: A2780/WT): 13 nM

CC[C@@]1(O)C(=O)OCc2c1cc1n(c2=O)Cc2cc3ccccc3nc2-1 [CPT sodium]
dose-limiting bladder toxicity [2]: three patients | Objective results: Improved [3, 9]: 1 patients | Objective results: Stable [3, 9]: 12 patients | Objective results: Worse [3, 9]: 14 patients | Objective results: Stable [3, 10]: 7 patients | Objective results: Worse [3, 10]: 20 patients | Objective results: Stable [3, 11]: 6 patients | Objective results: Worse [3, 11]: 21 patients | patients with evidence of partial objective improvement ([3]; after 2 months (8 or 9 weeks), 61 patients): two of their 61 patients | Objective results: Improved ([3]; single-dose method (34 patients total), 3 wks after start of therapy): 4 patients | Objective results: Stable [3, 12]: 17 patients | Objective results: Worse [3, 12]: 13 patients | Objective results: Improved [3, 13]: 2 patients | Objective results: Stable [3, 13]: 11 patients | Objective results: Worse [3, 13]: 21 patients | Objective results: Improved [3, 14]: 2 patients | Objective results: Stable [3, 14]: 8 patients | Objective results: Worse [3, 14]: 24 patients | Objective results: Stable [3, 15]: 6 patients | Objective results: Worse [3, 15]: 28 patients | Cystitis ([4]; 5-day course (P < 0.05)): 48 (P < 0.05) % of 27 Patients | Number of patients with cystitis ([4]; 5-day course, 11 mg/m^2 × 5, 2 patients treated): 1 patients | Number of patients with cystitis [4, 16]: 4 patients | Number of patients with diarrhea [4, 16]: 1 patients | Number of patients with cystitis [4, 17]: 2 patients | Number of patients with diarrhea [4, 17]: 4 patients | Number of patients with cystitis [4, 18]: 6 patients | Number of patients with diarrhea [4, 18]: 4 patients | Number of patients with diarrhea ([4]; 5-day course, 22 mg/m^2 × 5, 1 patient treated): 1 patients | Number of patients with cystitis ([4]; single-dose method, 100 mg/m^2, 6 patients treated): 2 patients | Number of patients with cystitis [4, 19]: 1 patients | Number of patients with diarrhea [4, 19]: 1 patients | Number of patients with cystitis [4, 20]: 2 patients | Number of patients with diarrhea [4, 20]: 4 patients | Number of patients with cystitis [4, 21]: 3 patients | Number of patients with diarrhea [4, 21]: 2 patients | less pronounced transient tumor regression [5]: three patients | myelosuppression [5]: 11 patients | patients with a 50% or greater decrease in tumor diameter [5]: None of the patients

CC[C@@](O)(C(=O)O)c1cc2n(c(=O)c1CO)Cc1cc3ccccc3nc1-2 [carboxylate form of CPT]
reduction of anti-tumor activity [6]: at least 10 fold

CC[C@@]1(O)C(=O)OCc2c1cc1n(c2=O)Cc2c-1nc1ccccc1c2CC[Si](C)(C)C [Karenitecin, (4S)-4-ethyl-4-hydroxy-11-[2-(trimethylsilyl)ethyl]-1H-pyrano[3′:4′:6,7]indolizino[1,2-b]quinoline-3,14(4H,12H)-dione]
antitumor potency compared with Topotecan and SN-38 [7]: significantly more potent antitumor agent than either Topotecan™ or SN-38

CC[C@@]1(O)C(=O)OCc2c1cc1n(c2=O)Cc2c-1nc1ccccc1c2CC[Si](C)(C)CCCOC(=O)C1=CCNO1 [Compound 64, 2,3-Dihydro-isoxazole-5-carboxylic acid 3-{[2-(4-ethyl-4-hydroxy-3,13-dioxo-3,4,12,13-tetrahydro-1H-2-oxa-6,12a-diaza-dibenzo[b,h]fluoren-11-yl)-ethyl]-dimethyl-silanyl}-propyl ester]
IC50 Ratio (A2780/DX5 cells): 4.27 | IC50 (A2780/DX5 cells): 59.8 nM | IC50 ([1]; A2780, read-out: A2780/WT): 14 nM

CC[C@@]1(O)C(=O)OCc2c1cc1n(c2=O)Cc2c-1nc1ccccc1c2CC[Si](C)(C)CSC(C)=O [Compound 9, thioacetic acid S-({[2-(4-ethyl-4-hydroxy-3,13-dioxo-3,4,12,13-tetrahydro-1H-2-oxa-6,12a-diaza-dibenzo[b,h]fluoren-11-yl)-ethyl]-dimethylsilanyl}-methyl)ester]
IC50 Ratio (A2780/DX5 cells): 1.94 | IC50 (A2780/DX5 cells): 125 nM | IC50 ([1]; A2780, read-out: A2780/WT): 64.7 nM

CCc1c2c(nc3ccc(OC(=O)N4CCC(N5CCCCC5)CC4)cc13)-c1cc3c(c(=O)n1C2)COC(=O)[C@]3(O)CC [CPT-11, 7-ethyl-10-[4-(1-piperidino)-1-piperidino]carbonyloxy camptothecin]
patient deaths directly attributable to drug toxicity [8]: approximately 100 patient deaths

CC[C@@]1(O)C(=O)OCc2c1cc1n(c2=O)Cc2c-1nc1ccccc1c2CC[Si](C)(C)CCCOC(=O)C1CCC1 [Compound 62, Cyclobutanecarboxylic acid 3-{[2-(4-ethyl-4-hydroxy-3,13-dioxo-3,4,12,13-tetrahydro-1H-2-oxa-6,12a-diaza-dibenzo[b,h]fluoren-11-yl)-ethyl]-dimethyl-silanyl}-propyl ester]
IC50 Ratio (A2780/DX5 cells): 3.77 | IC50 (A2780/DX5 cells): 39.2 nM | IC50 ([1]; A2780, read-out: A2780/WT): 10.4 nM

Source: patent publication US7687496B2, “C7-substituted camptothecin analogs” (priority 2007, dated 2010)
